Where two headings read alike, the source gives them in different places.
What was measured:
Format in all cases: cell-based
[1] = test system: cynomolgus monkey ES cells; conditions: for concentration considered the best in step 2: conclusion at the time of experiment 21
[2] = test system: cynomolgus monkey ES cells
Text: In order to conveniently observe the expression of genes represented by each developmental stage, the stop codons of TBXT, OSR1, NR5A1, FOXL2, WT1, and GATA4 were deleted from the cynomolgus monkey female ES15XRi cell strain using a Cas9 nickase and gene targeting, 2A and EGFP (TBXT, NR5A1), tdTomato (OSR1, FOXL2, and WT1), and 2A and mTagBFP2 (GATA4) were inserted, and then a drug-resistant cassette sandwiched between loxP's was knocked in (FIGS. 24A to 24F; and in FIG. 24A to FIG. 24F, “PGK” represents a PGK promoter). Thereafter, the drug-resistant cassette was removed using Cre to manufacture the following five double reporter cell strains. • (1) TBXT-EGFP/OSR1-tdTomato (which may be hereinafter abbreviated as a “TGOT strain”); • (2) NR5A1-EGFP/FOXL2-tdTomato (which may be hereinafter abbreviated as a “NGFT strain”); • (3) a single reporter strain of NR5A1-EGFP (which may be hereinafter abbreviated as an “NG-Puro strain”. This strain has not been subjected to the removal of the drug-resistant cassette by Cre); • (4) a triple reporter strain of WT1-tdTomato/GATA4-mTagBFP2/NR5A1-EGFP (which may be hereinafter abbreviated to as a “WTGBNG strain”); and • (5) WT1-tdTomato/NR5A1-EGFP (which may be hereinafter abbreviated as a “WTNG strain”).
(§1) The cells at each stage were analyzed using a flow cytometer (BD FACSAria III).
At the time of induction, the ES cells were cultured on mouse embryonic fibroblasts (MEF), which are feeder cells, treated with a proteolytic enzyme solution (CTK: collagenase, trypsin, and KSR), and then dissociated up to a single-cell level using TrypLEselect. Next, each of 30,000 cells was seeded in a low-adhesive 96-well U-bottom culture plate (hereinafter, step 1 was started by the same method unless otherwise specified). A TGOT No. 25 strain was used as a cell strain. The presence or absence of the ROCK inhibitor (Y-27632) in step 1 was examined. In FIG. 25A, the base medium GK7.5 has a composition of GMEM, 7.5 v/v % KSR, 0.1 mM 2-ME, 0.1 mM non-essential amino acid (NEAA), 1 mM sodium pyruvate, 100 U/mL penicillin/streptomycin, and 2 mM L-glutamine. The induction was performed for a period in step 1 of 2 days and in step 2 of 2 days. In step 2, PD173074 was used instead of PD0325901 used in mice. PD173074 is an inhibitor of FGF, whereas PD0325901 is an MEK inhibitor downstream of the FGF signaling pathway.

human iPS cells [3] = assay: Induction of differentiation from human iPS cells into ovarian somatic cell-like cells (FACS of OSR1-tdTomato/NR5A1-EGFP reporters, observation of embryoid bodies)
Text: In order to conveniently observe the expression of genes typical at each developmental stage, a human iPS cell line 1390G3 was genetically modified, and a DNA sequence that emits red fluorescence (tdTomato) with the expression of the OSR1 gene, green fluorescence (EGFP) with the expression of the NR5A1 gene, and red fluorescence (tdTomato) with the expression of the FOXL2 gene was manufactured (see FIG. 1, and after introduction into the chromosome, a portion of “PGKp-Neo (or Puro)-pA” portion was deleted with Cre). An iPS cell line into which two DNA sequences of OSR1 and NR5A1 had been introduced (which may be hereinafter abbreviated as “OTNG”), and an iPS cell line into which two DNA sequences of NR5A1 and FOXL2 had been introduced (which may be hereinafter abbreviated as “NGFT”) were manufactured. In the present test, the OTNG strain was used in most of the experiments. Furthermore, NR5A1 and SF1 are the same gene.
as §1
The ES cells of monkeys and human iPS cells are considered to be similar to EpiLC in a slightly advanced state in terms of differentiation, as compared with mouse ES cells. Therefore, in the examination using monkey or human pluripotent stem cells in the present test, step 0 was omitted and the process was started from step 1. […] For this reason, Y27632 was added to step 1 to perform examination. In addition, a 96-well V-bottom plate was used as a culture plate and the cells were seeded so as to have 10,000 cells per well.
In a test using human cells, the base medium was changed from GMEM (used in mice) to DMEM including 7.5 v/v % KnockOut (registered trademark) Serum Replacement (KSR). In addition, the base medium includes 0.1 mM 2-mercaptoethanol, 100 U/mL penicillin/streptomycin, and 2 mM GlutaMax (registered trademark), but the additives and concentrations thereof are fixed, and the description following “2.” is omitted. The periods of step 1 and step 2 were set to be the same as those in the mouse protocol, and culture was continued under the condition of step 3. The entire medium was basically changed every two or three days. At the time of subculturing iPS cells, 30,000 cells were seeded on a low-adhesive plate to start the culture as aggregates.

human iPS cells [4] = assay: Quantitative PCR of marker genes in cells induced from human iPS cells; conditions: bFGF 5 ng/ml added in step 1; day 15 of induction
Text: The relative expression level of each marker gene was confirmed using a PCR apparatus (BIO-RAD CFX384 Real-Time System) with the following primers and conditions. In the tables, the PPIA gene and the RPLP0 gene were used as housekeeping genes. The difference in qPCR is a difference from the average value taken as “(PPIA+RPLP0)/2”. In addition, the ERCC gene was used as an absolute control between samples.

[5] = added to each condition in step 3 (16 patterns), day 16
[6] = one cytokine added with EGF in step 3, compared with no cytokine control (CK−), BMP4 1 ng/ml, SHH 30 ng/mL, PD0325901 1 μM, RA 3 μM, day 16
[7] = one cytokine added with EGF in step 3, compared with no cytokine control (CK−), day 16

Compound: CC1=C(/C=C/C(C)=C/C=C/C(C)=C/C(=O)O)C(C)(C)CCC1 [RA, retinoic acid]
- concentration of RA in step 2 at which induction efficiency for NR5A1-positive cells was particularly excellent ([1]; 0, 0.3, 1, 3, 10 μM tested, FACS day 16): ≥ 3 µM
- concentration considered the best in step 2 [1]: 3 µM

Compound: BMP4: bone morphogenetic protein 4
- expression of OSR1 ([2]; increasing the amount of BMP in step 1, CHIR99021 14 μM or more): enhanced
- embryoid bodies (size; concern about cytotoxicity) [1]: the same tendency was recognized
- best concentration in step 2 (induction efficiency) ([1]; BMP4 0, 1, 5, 10 and SHH 0, 30, 60, 100 ng/ml tested, FACS day 16): 1 ng/mL
- concentration in step 3 that most induced NR5A1-positive cells ([1]; BMP4 0, 1, 20, 50 and FGF9 0, 2, 10, 20 ng/ml tested, FACS day 16): 1 ng/mL
- induction efficiency ([1]; BMP4 not added after step 2 (four-step method), FACS day 16): higher
- number of induced cells [1, 5]: decreased only in a case where BMP4 was added to EGF+RA (ER+B)
- expression of OSR1 ([1]; by the amount of BMP4 added in step 1 (1, 3, 10 ng/ml), CHIR 10 μM): increase
- concentration considered the best in step 2 [1]: 1 ng/mL
- induction efficiency [1, 6]: reduced
- number of induced cells [1, 7]: large
- concentration in step 1 at which number and proportion of the positive cells were maximal ([1]; periods 3-3-10 (days), day 16): 0 ng/mL

Compound: CC1(C)CC=C(C#Cc2ccccc2)c2cc(/C=C/c3ccc(C(=O)O)cc3)ccc21 [BMS493]
- OSR1 expression in step 2 ([1]; 1 μM in step 1, FACS days 2, 4, 6): enhancement
- expression level of SF1-EGFP ([1]; BMS493 1 μM added in step 3): slightly increased
- induction efficiency of SF1-positive cells ([1]; BMS493 1 μM added in step 3): poor
- expression level of WT1 ([1]; BMS493 1 μM for 48 hours in step 3, WTGBNG No. 1 strain): slightly decreased
- induction of NR5A1-positive cells ([1]; addition in step 1 (BMS493 1 μM), FACS day 14): no particular advantage

Compound: Cc1c[nH]c(-c2cnc(NCCNc3ccc(C#N)cn3)nc2-c2ccc(Cl)cc2Cl)n1 [CHIR99021]
- proportion of NR5A1-positive cells (human iPS cells [3]; CHIR99021 15 μM as compared to 10 μM in step 1): excellent
- expression of OSR1 ([2]; CHIR 10 μM in step 1, regardless of the concentration of BMP4): confirmed
- optimum concentration of CHIR for induction of the intermediate mesoderm ([2]; step 1): ≥ 10 µM
- concentration of CHIR99021 at which TBXT can be expressed with high efficiency ([2]; step 1 of 2 days, FACS day 2, TGOT No. 25 strain): ≥ 8 µM
- NR5A1-positive cells ([1]; CHIR 20 μM in step 1, culture until day 17, NGFT No. 69 strain): a number of NR5A1-positive cells were observed
- concentration of CHIR99021 at which OSR1 can be expressed with high efficiency ([1]; step 1, at a transition to step 2, FACS days 4 and 6): ≥ 14 µM

Compound: CNC1CCC(N(Cc2cccc(-c3ccncc3)c2)C(=O)c2sc3ccccc3c2Cl)CC1 (centres unmarked) [SAG]
- replacement of SHH in step 2 ([1]; SAG 100 nM, FACS day 16): SHH can be replaced with SAG

Compound: bFGF: basic fibroblast growth factor (FGF2)
- states of the embryoid bodies (human iPS cells [3]; added between day 2 and day 4 of induction, step 1 plane culture): poor (dead)
- differentiation induction efficiency (human iPS cells [3]; bFGF not present in step 1 (versus added)): higher
- expression of the marker gene of posteriorization (human iPS cells [4]): not recognized
- expression of OSR1 ([1]; added in step 1: bFGF 50 ng/mL entire period, Activin A 10 ng/ml one day from day 1, FACS days 2, 4, 6): acted toward enhancing the expression of OSR1
- NR5A1-positive cells ([1]; addition of bFGF in step 1, periods 2-2-12 (days), day 16): no significant change
- NR5A1-positive cell induction efficiency ([1]; addition of bFGF in step 1, periods 3-3-10 (days), day 16): remarkable improvement
- improvement of the induction of NR5A1-positive cells ([1]; bFGF 50 ng/ml and Activin A 10 ng/ml (only from day 1) in step 1, days 14 and 21): not recognized
- concentration in step 1 at which number and proportion of the positive cells were maximal ([1]; periods 3-3-10 (days), day 16): 5 ng/mL

Compound: EGF: epidermal growth factor
- concentration considered the best in step 2 [1]: 50 ng/mL
- necessity for induction ([1]; no addition of EGF in step 1 and step 2, FACS day 16, NGFT No. 69): not essential

Compound: C[C@@H](N)[C@H]1CC[C@H](C(=O)Nc2ccncc2)CC1 [Y-27632]
- efficiency of forming cell aggregates (embryoid bodies) ([2]; without Y-27632 in step 1, day 2 of induction, TGOT No. 25 strain): significantly low

Compound: O=C(NOC[C@H](O)CO)c1ccc(F)c(F)c1Nc1ccc(I)cc1F [PD0325901]
- NR5A1-positive cells (human iPS cells [3]; PD0325901 not added in step 2, day 15 of induction): not observed at all
- NR5A1-positive cells (human iPS cells [3]; PD0325901 weak in step 2 (0.4-1.0 μM tested), day 15): did not appear
- PD0325901 concentration with the highest differentiation induction efficiency (human iPS cells [3]; step 2, KSR 7 v/v %, day 15): 1.0 µM
- optimum concentration of PD0325901 in step 2 ([1]; FACS day 16, NGFT No. 69 strain): 1 µM
- induction efficiency ([1]; MEK downstream of FGF inhibited with PD0325901 1 μM in step 3, FACS day 16): higher
- number of the induced cells ([1]; PD03 added in step 3, WTGBNG No. 1): reduced
- induction efficiency [1, 5]: improved
- number of induced cells [1, 5]: decreased
- induction efficiency ([1]; addition of PD0325901 in step 3, without addition of SHH, WTGBNG No. 1): the highest
- concentration considered the best in step 2 [1]: 1 µM
- optimum addition period of PD03 in step 3 ([1]; none, 48 hours, 96 hours tested, NG-Puro strain): 48 h
- induction efficiency [1, 6]: further increased
- number of induced cells [1, 7]: decreased
- size (embryoid bodies) at the end of step 2 ([1]; step 2: PD0325901 3, 1, 0.3, 0 μM or FGF9 20 ng/ml, day 6): improved as the amount of PD0325901 was reduced
